Values of other authors, collected in patent publication US10898467B2, “Veterinary formulations” (BOEHRINGER INGELHEIM ANIMAL HEALTH USA INC., priority 2015, dated 2021).

Settings: beagle dogs, spot-on, 14C radiolabeled drug

SMILES: N#Cc1nn(-c2c(Cl)cc(C(F)(F)F)cc2Cl)c(N)c1[S+]([O-])C(F)(F)F (stereo not shown) [fipronil, 1-(2,6-Cl2-4-CF3phenyl)-3-CN-4-(SO—CF3)-5-NH2pyrazole]
- Time for which fipronil was persistently detected in the whole skin after treatment: up to 56 days
